Data: US20150141411A1, “SUBSTITUTED 3,4-DIHYDRO-2H-PYRIDO[1,2-A]PYRAZINE-1,6-DIONE DERIVATIVES USEFUL FOR THE TREATMENT OF (INTER ALIA) ALZHEIMER'S DISEASE” (Janssen Pharmaceuticals, Inc., priority 2012, published 2015)

How the values were obtained:
Aβ42 = experiment: In vivo efficacy: brain soluble Aβ42 in non-transgenic rodents (MSD electrochemiluminescence multiplex); parameters: species or system mouse; conditions: dose 30 mg/kg oral dosing, brain soluble fraction, animals sacrificed after 4 h; for response vs control in vivo at 30 mg/kg: Mus musculus, po, 4 h, untreated animals (Ctrl) set at 100, read-out: Aβ42 (% vs Ctrl)_Mean
Excerpt: (§1) To determine whether acute administration of an Aβ42 lowering agent would reduce Aβ42 levels in vivo, non-transgenic rodents, e.g. mice or rats were used. Animals treated with the Aβ42 lowering agent were examined and compared to those untreated or treated with vehicle and brain levels of soluble Aβ42, Aβ40, Aβ38, and Aβ37 were quantitated by Meso Scale Discovery's (MSD) electrochemiluminescence detection technology. Treatment periods varied from hours (h) to days and were adjusted based on the results of the Aβ42 lowering once a time course of onset of effect could be established.
(§2) A typical protocol for measuring Aβ42 lowering in vivo is shown but it is only one of many variations that could be used to optimize the levels of detectable Aβ. For example, Aβ42 lowering compounds were formulated in 20% of Captisol® (a sulfo-butyl ether of β-cyclodextrin) in water or 20% hydroxypropyl βcyclodextrin. The Aβ42 lowering agents were administered as a single oral dose or by any acceptable route of administration to overnight fasted animals. After 4 h, the animals were sacrificed and Aβ42 levels were analysed.
(§3) Blood was collected by decapitation and exsanguinations in EDTA-treated collection tubes. Blood was centrifuged at 1900 g for 10 minutes (min) at 4° C. and the plasma recovered and flash frozen for later analysis. The brain was removed from the cranium and hindbrain. The cerebellum was removed and the left and right hemisphere were separated. The left hemisphere was stored at −18° C. for quantitative analysis of test compound levels. The right hemisphere was rinsed with phosphate-buffered saline (PBS) buffer and immediately frozen on dry ice and stored at −80° C. until homogenization for biochemical assays.
(§4) Mouse brains from non-transgenic animals were resuspended in 8 volumes of 0.4% DEA (diethylamine)/50 mM NaCl containing protease inhibitors (Roche-11873580001 or 04693159001) per gram of tissue, e.g. for 0.158 g brain, add 1.264 ml of 0.4% DEA. All samples were homogenized in the FastPrep-24 system (MP Biomedicals) using lysing matrix D (MPBio #6913-100) at 6 m/s for 20 seconds. Homogenates were centrifuged at 20800×g for 5 min and supernatants collected. Supernatants were centrifuged at 221.300×g for 50 min. The resulting high speed supernatants were then transferred to fresh eppendorf tubes. Nine parts of supernatant were neutralized with 1 part 0.5 M Tris-HCl pH 6.8 and used to quantify Aβ.
(§5) To quantify the amount of Aβ42, Aβ40, Aβ38, and Aβ37 in the soluble fraction of the brain homogenates, simultaneous specific detection of Aβ42, Aβ40, Aβ38, and Aβ37 was performed using MSD's electro-chemiluminescence multiplex detection technology. In this assay purified monoclonal antibodies specific for Abeta37 (JRD/Aβ37/3), Abeta38 (J&JPRD/Aβ38/5), Abeta40 (JRF/cAβ40/28), and Abeta42 (JRF/cAβ42/26) were coated on MSD 4-plex plates. Briefly, the standards (a dilution of synthetic Aβ42, Aβ40, Aβ38, and Aβ37) were prepared in 1.5 ml Eppendorf tube in Ultraculture, with final concentrations ranging from 10000 to 0.3 pg/m. The samples and standards were co-incubated with Sulfo-tag labelled JRF/rAβ/2 antibody to the N-terminus of Aβ as detector antibody. 50 μl of conjugate/sample or conjugate/standards mixtures were then added to the antibody-coated plate. The plate was allowed to incubate overnight at 4° C. in order to allow formation of the antibody-amyloid complex. Following this incubation and subsequent wash steps the assay was finished by adding read buffer according to the manufacturer's instructions (Meso Scale Discovery, Gaitherburg, Md.).
(§6) The SULFO-TAG emits light upon electrochemical stimulation initiated at the electrode. MSD Sector instrument SI6000 was used for signal read-out.
In this model a Aβ42 lowering compared to untreated animals would be advantageous, in particular a Aβ42 lowering with at least 10%, more in particular a Aβ42 lowering with at least 20%. […]

Aβ40 = experiment: In vivo efficacy: brain soluble Aβ40 in non-transgenic rodents (MSD electrochemiluminescence multiplex); parameters: species or system mouse; conditions: dose 30 mg/kg oral dosing, brain soluble fraction, animals sacrificed after 4 h; for response vs control in vivo at 30 mg/kg: Mus musculus, po, 4 h, untreated animals (Ctrl) set at 100, read-out: Aβ40 (% vs Ctrl)_Mean; for Aβ40 (% vs Ctrl)_Mean: untreated animals (Ctrl) set at 100, 30 mg/kg
Excerpt: as §1, §2, §3, §4, §5, §6
The results are shown in Table 5 (dose 30 mg/kg oral dosing) (value for untreated animals as control (Ctrl) was set at 100): […]

Cc1cn(-c2ccc3n(c2=O)C[C@@H](C)N(Cc2cc(N4CCOC(C(F)(F)F)C4)cc(C(F)(F)F)c2)C3=O)cn1 (mixture of isomers) [compound 153]
response vs control in vivo at 30 mg/kg (Aβ42): 100% | response vs control in vivo at 30 mg/kg (Aβ40): 128%

Cc1cn(-c2ccc3n(c2=O)CC(C)N(C(C)c2cc(C(F)(F)F)cc(C(F)(F)F)c2)C3=O)cn1.Cl (single isomer, unassigned) [compound 111]
response vs control in vivo at 30 mg/kg (Aβ42): 35% | Aβ40 (% vs Ctrl)_Mean (Aβ40): 52 % vs Ctrl

Cc1cn(-c2ccc3n(c2=O)CC(C)N(C(C)c2cc(C(F)(F)F)cc(C(F)(F)F)c2)C3=O)cn1.Cl (single isomer, unassigned) [compound 112]
Aβ42 (% vs Ctrl)_Mean (Aβ42; untreated animals (Ctrl) set at 100, 30 mg/kg): 55 % vs Ctrl | Aβ40 (% vs Ctrl)_Mean (Aβ40): 82 % vs Ctrl

CCC(c1cc(OC)cc(C(F)(F)F)c1)N1C(=O)c2ccc(-n3cnc(C)c3)c(=O)n2C[C@H]1C (single isomer, unassigned) [compound 141]
response vs control in vivo at 30 mg/kg (Aβ42): 85% | response vs control in vivo at 30 mg/kg (Aβ40): 122%

CCOc1cc(C(C)N2C(=O)c3ccc(-n4cnc(C)c4)c(=O)n3C[C@H]2C)cc(C(F)(F)F)c1 (single isomer, unassigned) [compound 143]
response vs control in vivo at 30 mg/kg (Aβ42): 123% | response vs control in vivo at 30 mg/kg (Aβ40): 129%

Cc1cn(-c2ccc3n(c2=O)CCN(C(C)c2c[nH]c4cc(F)c(Cl)cc24)C3=O)cn1 (single isomer, unassigned) [compound 183]
response vs control in vivo at 30 mg/kg (Aβ42): 97% | response vs control in vivo at 30 mg/kg (Aβ40): 133%

Cc1cn(-c2ccc3n(c2=O)CCN(C(C)c2cn(C)c4cc(F)c(Cl)cc24)C3=O)cn1 (single isomer, unassigned) [compound 185]
response vs control in vivo at 30 mg/kg (Aβ42): 68% | response vs control in vivo at 30 mg/kg (Aβ40): 89%

Cc1cn(-c2ccc3n(c2=O)CC(C)N(C(C)c2cn(C)c4cc(F)c(Cl)cc24)C3=O)cn1 (single isomer, unassigned) [compound 189]
response vs control in vivo at 30 mg/kg (Aβ42): 116% | response vs control in vivo at 30 mg/kg (Aβ40): 118%

CCn1cc(C(C)N2C(=O)c3ccc(-n4cnc(C)c4)c(=O)n3CC2C)c2cc(Cl)c(F)cc21 (single isomer, unassigned) [compound 192]
response vs control in vivo at 30 mg/kg (Aβ42): 39% | response vs control in vivo at 30 mg/kg (Aβ40): 44%

Cc1cn(-c2ccc3n(c2=O)CC(C)N(C(C)c2cn(C(C)C)c4cc(F)c(Cl)cc24)C3=O)cn1 (single isomer, unassigned) [compound 194]
response vs control in vivo at 30 mg/kg (Aβ42): 39% | response vs control in vivo at 30 mg/kg (Aβ40): 43%

Cc1cn(-c2ccc3n(c2=O)CC(C)N(C(C)c2c[nH]c4c(F)cc(Cl)cc24)C3=O)cn1 (single isomer, unassigned) [compound 219]
response vs control in vivo at 30 mg/kg (Aβ42): 76% | response vs control in vivo at 30 mg/kg (Aβ40): 95%

Cc1cn(-c2ccc3n(c2=O)CC(C)N(Cc2cc(C(F)(F)F)cc(C(F)(F)F)c2)C3=O)cn1 (centres unmarked) [compound 3]
response vs control in vivo at 30 mg/kg (Aβ42): 51% | response vs control in vivo at 30 mg/kg (Aβ40): 85%

Cc1cn(-c2ccc3n(c2=O)CC(C)N(Cc2cc(OCC4CC4)cc(C(F)(F)F)c2)C3=O)cn1.Cl (centres unmarked) [compound 6]
response vs control in vivo at 30 mg/kg (Aβ42): 73% | response vs control in vivo at 30 mg/kg (Aβ40): 108%

Cc1cn(-c2ccc3n(c2=O)C[C@@H](C)N(CCc2cc(C(F)(F)F)cc(C(F)(F)F)c2)C3=O)cn1 [compound 50]
response vs control in vivo at 30 mg/kg (Aβ42): 99% | response vs control in vivo at 30 mg/kg (Aβ40): 112%

Cc1cn(-c2ccc3n(c2=O)C[C@@H](C)N(Cc2cc(N4CCC(C)CC4)ccc2Cl)C3=O)cn1 [compound 80]
response vs control in vivo at 30 mg/kg (Aβ42): 148% | response vs control in vivo at 30 mg/kg (Aβ40): 164%

Cc1cn(-c2ccc3n(c2=O)C[C@@H](C)N(Cc2cc(N4CCCC4)ccc2Cl)C3=O)cn1 [compound 82]
response vs control in vivo at 30 mg/kg (Aβ42): 103% | response vs control in vivo at 30 mg/kg (Aβ40): 125%

Cc1cn(-c2ccc3n(c2=O)C[C@@H](C)N(Cc2cc(CC4CC4)cc(C(F)(F)F)c2)C3=O)cn1 [compound 110]
response vs control in vivo at 30 mg/kg (Aβ42): 88% | response vs control in vivo at 30 mg/kg (Aβ40): 103%

Cc1cn(-c2ccc3n(c2=O)C[C@@H](C)N(Cc2cc(C4CC4)cc(C(F)(F)F)c2)C3=O)cn1 [compound 116]
response vs control in vivo at 30 mg/kg (Aβ42): 75% | response vs control in vivo at 30 mg/kg (Aβ40): 105%

C[C@@H]1Cn2c(ccc(-n3cnc(Cl)c3)c2=O)C(=O)N1Cc1cc(C(F)(F)F)cc(C(F)(F)F)c1 [compound 118]
response vs control in vivo at 30 mg/kg (Aβ42): 92% | response vs control in vivo at 30 mg/kg (Aβ40): 115%

Cc1cn(-c2ccc3n(c2=O)C[C@@H](C)N(Cc2cc(OC(C)C)nc(C(F)(F)F)c2)C3=O)cn1 [compound 128]
response vs control in vivo at 30 mg/kg (Aβ42): 60% | response vs control in vivo at 30 mg/kg (Aβ40): 116%

COc1cccc(CN2C(=O)c3ccc(-n4cnc(C)c4)c(=O)n3C[C@H]2C)c1 [compound 132]
response vs control in vivo at 30 mg/kg (Aβ42): 104% | response vs control in vivo at 30 mg/kg (Aβ40): 121%

Cc1cn(-c2ccc3n(c2=O)C[C@@H](C)N(Cc2ccc(F)c(F)c2)C3=O)cn1 [compound 133]
response vs control in vivo at 30 mg/kg (Aβ42): 87% | response vs control in vivo at 30 mg/kg (Aβ40): 77%

Cc1cn(-c2ccc3n(c2=O)C[C@@H](C)N(Cc2cc(CC(F)(F)F)cc(C(F)(F)F)c2)C3=O)cn1 [compound 134]
response vs control in vivo at 30 mg/kg (Aβ42): 97% | response vs control in vivo at 30 mg/kg (Aβ40): 115%

Cc1cn(-c2ccc3n(c2=O)C[C@@H](C)N(Cc2cc(OC(F)(F)F)cc(C(F)(F)F)c2)C3=O)cn1 [compound 140]
response vs control in vivo at 30 mg/kg (Aβ42): 42% | response vs control in vivo at 30 mg/kg (Aβ40): 71%

Cc1cn(-c2ccc3n(c2=O)C[C@@H](C)N(Cc2cc(Br)cc(C(F)(F)F)c2)C3=O)cn1 [compound 145]
response vs control in vivo at 30 mg/kg (Aβ42): 71% | response vs control in vivo at 30 mg/kg (Aβ40): 92%

Cc1cn(-c2cc(F)c3n(c2=O)C[C@@H](C)N(Cc2cc(C(F)(F)F)cc(C(F)(F)F)c2)C3=O)cn1 [compound 158]
response vs control in vivo at 30 mg/kg (Aβ42): 97% | response vs control in vivo at 30 mg/kg (Aβ40): 98%

Cc1cn(-c2ccc3n(c2=O)C[C@@H](C)N(Cc2cc(OCC(F)(F)F)cc(C(F)(F)F)c2)C3=O)cn1 [compound 166]
response vs control in vivo at 30 mg/kg (Aβ42): 64% | response vs control in vivo at 30 mg/kg (Aβ40): 107%

Cc1cn(-c2ccc3n(c2=O)C[C@@H](C)N(Cc2c[nH]c4cc(F)c(Cl)cc24)C3=O)cn1 [compound 195]
response vs control in vivo at 30 mg/kg (Aβ42): 105% | response vs control in vivo at 30 mg/kg (Aβ40): 135%
